Experimental data as given in patent US20240067662A1, “KRAS INHIBITORS” (Bristol-Myers Squibb Company, priority 2022, published 2024).

Target: GMPPNP-loaded KRAS G12C (Homo sapiens, UniProt P01116, G12C)
Assay: KRAS G12C RAF Disruption Assay (HTRF)
Type: biochemical
Details: recombinant GMPPNP-loaded KRAS G12C (5 nM), 20 min with compound; GST-RAF1 RBD (9 nM); HTRF signal; read-out: KRASG12C RAF Disruption Assay (IC50)
How it was run: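 The read-out is an HTRF 520/495 emission ratio, with IC50 taken from dose-response curves. Compound was first incubated for 20 min at room temperature with active-state KRAS G12C (GMPPNP, 5 nM) in Tris pH 7.5/NaCl/MgCl2/DTT/BSA. RAF1 RBD-GST (9 nM, 20 min) and SA-Tb (0.25 nM, 3 h) were added in turn.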

GMPPNP-loaded KRAS G12C, sequence (P01116 1-188 isoform P01116-2 G12C): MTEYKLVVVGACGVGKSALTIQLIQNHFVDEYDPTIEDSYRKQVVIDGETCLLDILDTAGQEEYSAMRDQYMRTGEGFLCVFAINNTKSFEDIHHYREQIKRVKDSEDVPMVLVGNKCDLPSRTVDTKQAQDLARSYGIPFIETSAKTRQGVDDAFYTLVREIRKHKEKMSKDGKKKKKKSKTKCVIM

| Structure (SMILES) | IC50 [nM] |
| --- | --- |
| Nc1nc2c(-c3ncc4c(N5CCN(C(=O)/C(F)=C/c6nccs6)CC5)nc(OC[C@@]56CCCN5C[C@H](F)C6)nc4c3F)c(F)cc(F)c2s1 [Example 67, (Z)-1-(4-(7-(2-amino-5,7-difluorobenzo[d]thiazol-4-yl)-8-fluoro-2-(((2R, 7aS)-2-fluorotetrahydro-1H-pyrrolizin-7a(5H)-yl)methoxy)pyrido[4,3-d]pyrimidin-4-yl)piperazin-1-yl)-2-fluoro-3-(thiazol-2-yl)prop-2-en-1-one] | 41 |
| C#Cc1cccc2cccc(-c3ncc4c(N(C)C5CCN(C(=O)/C(F)=C/c6nccs6)C5C)nc(OC[C@@]56CCCN5C[C@H](F)C6)nc4c3F)c12 (single isomer, unassigned) [Example 73 cis isomer 2] | 1800 |
